# Tests used:
# CDK2/cyclin A = biological target: T1, CDK2/cyclin A (Homo sapiens, UniProt P24941); experiment: Inhibition of CDK2/cyclin A retinoblastoma kinase activity (Ki; % inhibition); assay type: biochemical; settings: for Ki: apparent Ki, CDK2/cyclin A, Rb substrate
# T1 construct: made in house; host or cells: CDK2: insect cells (baculovirus); cyclin A: E. coli
# Procedure, shortened: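 Radiometric filter assay of CDK2/proteolyzed cyclin A (baculovirus-expressed human CDK2, 10 or 19 nM) phosphorylating an Rb fragment with 25 μM [³²P/³³P]ATP in pH 7.4 HEPES, 2% DMSO, at 30 °C for 60 or 75 min under initial-rate conditions. Library compounds screened at 30 nM for % inhibition; apparent Ki from concentration series fit to competitive or tight-binding inhibition equations.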
# human CDK4/cyclin D3 = biological target: T2, human CDK4/cyclin D3 (Homo sapiens, UniProt P11802); experiment: Inhibition of CDK4/cyclin D retinoblastoma kinase activity (Ki; % inhibition); assay type: biochemical; settings: for Ki: apparent Ki, CDK4/cyclin D3, Rb substrate
# T2 construct: made in house; host or cells: insect cells co-infected with baculovirus vectors
# Procedure, shortened: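 Insect-cell-expressed CDK4 with truncated cyclin D3 (1-264), 5 nM, phosphorylating His-tagged Rb fragment (386-928) with 25 μM [32/33P]ATP at pH 7.4, 30 °C, 20 min (60 min for tight binders). Filter capture, phosphorimager read; % inhibition at 30 nM compound, Ki from competitive or tight-binding fits.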
# HCT-116 cell line = experiment: Inhibition of cell growth, MTT tetrazolium salt assay; assay type: cell-based; settings: for IC50: Homo sapiens, HCT-116, 120 h, MTT, three to five days
# Procedure, shortened: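 Growth inhibition was read as MTT-formazan absorbance at 540 nm, after 4 h with 0.2 mg/mL MTT. Before that, HCT-116 cells had been exposed 3–5 days at 37 °C to compounds in 0.5% (v/v) DMSO, added 4 h after plating. 50% and 90% inhibitory concentrations were taken from semi-log concentration–inhibition plots versus vehicle controls.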
# [1] = HCT-116 cells, 0.25 μM compound
# T2 sequence (P11802 whole entry): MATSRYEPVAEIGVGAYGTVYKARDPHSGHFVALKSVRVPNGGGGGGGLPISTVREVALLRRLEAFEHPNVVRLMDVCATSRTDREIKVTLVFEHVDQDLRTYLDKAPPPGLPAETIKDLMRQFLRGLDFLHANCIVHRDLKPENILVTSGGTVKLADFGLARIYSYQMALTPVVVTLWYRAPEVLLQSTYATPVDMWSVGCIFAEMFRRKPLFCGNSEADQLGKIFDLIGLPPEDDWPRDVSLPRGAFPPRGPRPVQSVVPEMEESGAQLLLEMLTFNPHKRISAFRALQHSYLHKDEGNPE
# T2 sequence (P30281 1-264 partner limits assumed): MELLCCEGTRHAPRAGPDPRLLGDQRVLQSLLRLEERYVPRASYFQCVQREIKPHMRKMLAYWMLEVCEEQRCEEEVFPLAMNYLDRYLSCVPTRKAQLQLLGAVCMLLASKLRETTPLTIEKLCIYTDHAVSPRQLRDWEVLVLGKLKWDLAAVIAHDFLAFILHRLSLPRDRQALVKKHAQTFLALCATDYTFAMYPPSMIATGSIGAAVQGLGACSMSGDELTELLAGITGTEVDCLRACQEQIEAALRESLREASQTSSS
CDK2 % Inhibition at 0.03 μM (CDK2/cyclin A; 0.03 μM compound) [%],CDK4 % Inhibition at 0.03 μM (human CDK4/cyclin D3; 0.03 μM compound) [%],CDK2 % Inhibition at 0.03 μM (CDK2/cyclin A; at 0.03 μM) [%],CDK4 % Inhibition at 0.03 μM (human CDK4/cyclin D3; at 0.03 μM) [%],Compound,"HCT-116 % Inhibition at 0.1 μM (HCT-116 cell line; HCT-116 cells, 0.1 μM compound) [%]",HCT-116 % Inhibition at 0.25 μM (HCT-116 cell line; [1]) [%],"HCT-116 % Inhibition at 0.25 μM (HCT-116 cell line; HCT-116, at 0.25 μM) [%]",other results
9,19,,,CCN(CC)C(=O)c1ccc(Nc2nc(N)c(C(=O)c3c(F)cccc3F)s2)cc1 [Example C232],9,53,,
−6,9,,,Cc1ccc(O)c(NC(=O)c2ccc(Nc3nc(N)c(C(=O)c4c(F)cccc4F)s3)cc2)c1 [Example G396],14,67,,
6,10,,,CCCc1ccc(NC(=O)c2ccc(Nc3nc(N)c(C(=O)c4c(F)cccc4F)s3)cc2)cc1 [Example G204],19,49,,
,,4,18,Nc1nc(Nc2ccc(C(=O)N3CC=CC3)cc2)sc1C(=O)c1c(F)cccc1F [Example G40],,,61,
38,36,,,Nc1nc(Nc2ccc(C(=O)NCc3ccccc3Cl)cc2)sc1C(=O)c1c(F)cccc1F [Example G228],24,75,,
,,10,4,CC(O)c1ccc(NC(=O)c2ccc(Nc3nc(N)c(C(=O)c4c(F)cccc4F)s3)cc2)cc1 (centres unmarked) [Example G94],,,80,"HCT-116 % Inhibition at 0.1 μM (HCT-116 cell line; HCT-116, at 0.1 μM): 38%"
11,7,,,Nc1nc(Nc2ccc(C(=O)Nc3cccc(C(F)(F)F)c3)cc2)sc1C(=O)c1c(F)cccc1F [Example G371],27,53,,
−16,5,,,CCCN(C(=O)c1ccc(Nc2nc(N)c(C(=O)c3c(F)cccc3F)s2)cc1)C(C)CC (centres unmarked) [Example G356],27,50,,
,,0,11,Nc1nc(Nc2ccc(C(=O)NCC3CC3)cc2)sc1C(=O)c1c(F)cccc1F [Example G144],,,57,"HCT-116 % Inhibition at 0.1 μM (HCT-116 cell line; HCT-116, at 0.1 μM): 0%"
,,15,19,Nc1nc(Nc2ccc(C(=O)NCCc3ccccn3)cc2)sc1C(=O)c1c(F)cccc1F [Example G140],,,54,"HCT-116 % Inhibition at 0.1 μM (HCT-116 cell line; HCT-116, at 0.1 μM): 0%"
−5,14,,,COc1ccc(OC)c(CCNC(=O)c2ccc(Nc3nc(N)c(C(=O)c4c(F)cccc4F)s3)cc2)c1 [Example G319],17,54,,
9,16,,,CCN(Cc1ccccc1)C(=O)c1ccc(Nc2nc(N)c(C(=O)c3c(F)cccc3F)s2)cc1 [Example G209],9,50,,
,,−16,0,COCCN(C)C(=O)c1ccc(Nc2nc(N)c(C(=O)c3c(F)cccc3F)s2)cc1 [Example G13],,,44,
,,8,14,Cc1ccc(NC(=O)c2ccc(Nc3nc(N)c(C(=O)c4c(F)cccc4F)s3)cc2)c(Cl)c1 [Example G44],,,72,
,,6,22,CC(CO)NC(=O)c1ccc(Nc2nc(N)c(C(=O)c3c(F)cccc3F)s2)cc1 (centres unmarked) [Example G109],,,,"HCT-116 % Inhibition at 0.1 μM (HCT-116 cell line; HCT-116, at 0.1 μM, 0.1 µM): 0%; HCT-116 % Inhibition at 0.25 μM (HCT-116 cell line; HCT-116, at 0.25 μM, 0.25 µM): 54%"

# The next lines start with the compound.
Compound,CDK2 % Inhibition at 0.03 μM (CDK2/cyclin A; 0.03 μM compound) [%],CDK4 % Inhibition at 0.03 μM (human CDK4/cyclin D3; 0.03 μM compound) [%],CDK2 % Inhibition at 0.03 μM (CDK2/cyclin A; at 0.03 μM) [%],CDK4 % Inhibition at 0.03 μM (human CDK4/cyclin D3; at 0.03 μM) [%],"HCT-116 % Inhibition at 0.1 μM (HCT-116 cell line; HCT-116 cells, 0.1 μM compound) [%]",HCT-116 % Inhibition at 0.25 μM (HCT-116 cell line; [1]) [%],"HCT-116 % Inhibition at 0.25 μM (HCT-116 cell line; HCT-116, at 0.25 μM) [%]",other results
Nc1nc(Nc2ccc(C(=O)N3CCC(O)(c4ccccc4)CC3)cc2)sc1C(=O)c1c(F)cccc1F [Example G202],5,25,,,20,48,,
CN(C)CCCCCCNC(=O)c1ccc(Nc2nc(N)c(C(=O)c3c(F)cccc3F)s2)cc1 [Example G99],,,−16,23,,,62,"HCT-116 % Inhibition at 0.1 μM (HCT-116 cell line; HCT-116, at 0.1 μM): 24%"
"Nc1nc(Nc2ccc(C(=O)NCCc3ccncc3)cc2)sc1C(=O)c1c(F)cccc1F [Example A29, 4-[4-Amino-5-(2,6-difluoro-benzoyl)-thiazol-2-ylamino]-N-(2-pyridin-4-yl-ethyl)-benzamide]",,,,,,,,Ki (CDK2/cyclin A): 52 nM; Ki (human CDK4/cyclin D3): 26 nM; IC50 (HCT-116 cell line): 220 nM
Nc1nc(Nc2ccc(C(=O)N3CCC4(CC3)OCCO4)cc2)sc1C(=O)c1c(F)cccc1F [Example G34],,,8,9,,,53,
Cc1cccc(N2CCN(C(=O)c3ccc(Nc4nc(N)c(C(=O)c5c(F)cccc5F)s4)cc3)CC2C)c1 (centres unmarked) [Example G308],−23,5,,,5,60,,
CCCCN(C)C(=O)c1ccc(Nc2nc(N)c(C(=O)c3c(F)cccc3F)s2)cc1 [Example G218],8,19,,,11,52,,
CCN(CC)CCCNC(=O)c1ccc(Nc2nc(N)c(C(=O)c3c(F)cccc3F)s2)cc1 [Example G127],,,10,29,,,61,"HCT-116 % Inhibition at 0.1 μM (HCT-116 cell line; HCT-116, at 0.1 μM): 0%"
NC(=O)C1CCCN(C(=O)c2ccc(Nc3nc(N)c(C(=O)c4c(F)cccc4F)s3)cc2)C1 (centres unmarked) [Example G41],,,11,10,,,50,
CCOC(=O)C1CCN(C(=O)c2ccc(Nc3nc(N)c(C(=O)c4c(F)cccc4F)s3)cc2)CC1 [Example G210],13,20,,,15,45,,
CN(C)CCNC(=O)c1ccc(Nc2nc(N)c(C(=O)c3c(F)cccc3F)s2)cc1Cl [C],,,,,,,,Ki (CDK2/cyclin A): 170 nM; Ki (human CDK4/cyclin D3): 27 nM; IC50 (HCT-116 cell line): 210 nM
"CN1CCCC[C@H]1CNC(=O)c1ccc(Nc2nc(N)c(C(=O)c3c(F)cccc3F)s2)cc1 [Example A43, 4-[4-Amino-5-(2,6-difluoro-benzoyl)-thiazol-2-ylamino]-N-(1-methyl-piperidin-2S-yl-methyl)-benzamide]",,,,,,,,Ki (CDK2/cyclin A): 109 nM; Ki (human CDK4/cyclin D3): 13 nM; IC50 (HCT-116 cell line): 580 nM
Nc1nc(Nc2ccc(C(=O)N3CCC(Cc4ccccc4)CC3)cc2)sc1C(=O)c1c(F)cccc1F [Example G194],,,1,19,,,49,"HCT-116 % Inhibition at 0.1 μM (HCT-116 cell line; HCT-116, at 0.1 μM): 20%"
"CN(C)c1ccc(NC(=O)c2ccc(Nc3nc(N)c(C(=O)c4c(F)cccc4F)s3)cc2)cc1 [Example A16, 4-[4-Amino-5-(2,6-difluoro-benzoyl)-thiazol-2-ylamino]-N-(4-dimethylamino-phenyl)-benzamide]",,,,,,,,Ki (CDK2/cyclin A): 68 nM; Ki (human CDK4/cyclin D3): 25 nM; IC50 (HCT-116 cell line): 170 nM
CC1CC(NC(=O)c2ccc(Nc3nc(N)c(C(=O)c4c(F)cccc4F)s3)cc2)CC(C)(C)C1 (centres unmarked) [Example G112],,,−11,13,,,57,"HCT-116 % Inhibition at 0.1 μM (HCT-116 cell line; HCT-116, at 0.1 μM): 6%"

# — US6720346B2, “Thiazole benzamide derivatives and pharmaceutical compositions for inhibiting cell proliferation” (Agouron Pharmaceuticals, Inc., priority 2001, dated 2004)
